Measurements reported in PMC10217311 (Gels, 2023).
Values after ≈ are worked out from the molar mass of the structure shown.

Legend:
[1] = physchem
Method: Lipophilicity is essential for predicting the hydrophobicity and partitioning of drugs in biological systems. Therefore, the test was prepared using the shake-flask method.

[2] = Permeation of the active substance through the skin, Franz diffusion cell; format: in vitro ADME, pig; conditions: 24 h permeation test; abstract prints human skin
Excerpt: The steady-state flux was estimated from the slope of the linear portion of the plot of cumulative mass in the acceptor phase over time.

[3] = physchem; remark: listed apart in the source
Method: The following oils were used in the research: hemp oil, evening primrose oil, and sunflower oil, as well as the following surfactants: Tween 40, Tween 60, Span 80, and Tween 80. […] The study was carried out in screw-cap vials with continuous magnetic stirring at 100 rpm at 25 °C for 48 h. A supersaturated solution was obtained and filtered through a syringe filter with MCE (Mixed Cellulose Ester) membrane (0.45 µm, ⌀ 47 mm). The content of the compound in the solution was determined by HPLC. The HPLC analyses were performed using a Shimadzu (Kyoto, Japan) Nexera-i LC-2040C 3D High Plus liquid chromatograph equipped with a DAD/FLD detector and Kinetex® F5 column 100 Å ([…]; 150 × 4.6 mm; Phenomenex, Torrance, CA, USA) maintained at 35 °C. The mixture of acetonitrile and water 60/40 (v/v) was used as the mobile phase under isocratic conditions, with a flow rate of 0.5 mL/min. The detection wavelength was 210 nm. The collected data were acquired and processed using LabSolutions/LC Solution System. Each measurement was performed in triplicate, and the results were averaged.

[4] = for T5%, decomposition temperature, 5% weight loss of the initial mass / T50%, decomposition temperature, 50% weight loss of the initial mass: TG, oxidative conditions
Method: The thermal stability of drugs is an essential property necessary to control the formulation method of the finished drug. […] Both the temperature at which decomposition begins (Tonset) and the temperature at which mass loss accelerates to its maximum (Tmax) were identified. […]
XRD, thermal stability (TG), phase transition temperatures (DSC), specific rotation, solubility in water, and lipophilicity were also determined. […]
Thermal stability was assessed using thermogravimetric analyses performed on a Netzsch thermomicrobalance TG 209 F1 Libra. The analysis was conducted under oxidative conditions, with a nitrogen flow (as protective gas) of 10 mL/min, an airflow of 25 mL/min, and a temperature range of 25 to 1000 °C. Samples of roughly 5 mg weight were heated at 10°/min. The onset decomposition temperature was calculated using the intersection of TG curve tangents. The temperatures associated with the quickest sample weight loss were calculated using the first derivative of the TG curve (DTG curve). […]

Row | SMILES | logP [1] | Average cumulative mass of IBU after 24 h from emulsion-based gel, times higher than commercial products [2] | solubility at 48 h ([3]; Span 80, 25 °C, aqueous with cosolvent or surfactant or cyclodextrin, thermodynamic from solid) | solubility at 48 h ([3]; Tween 40) | solubility at 48 h ([3]; Tween 60, 25 °C, aqueous with cosolvent or surfactant or cyclodextrin, thermodynamic from solid) | solubility at 48 h ([3]; Tween 80) | solubility at 48 h ([3]; evening primrose oil, 25 °C, oil or lipid, thermodynamic from solid) | solubility at 48 h ([3]; hemp oil) | Solubility ([3]; in Sunflower oil, 25 °C, mean ± S.D., n = 3) | Tonset, the onset temperature of the thermal degradation [4] | T5%, decomposition temperature, 5% weight loss of the initial mass [4] | T50%, decomposition temperature, 50% weight loss of the initial mass [4]
1 | CC(C)Cc1ccc(C(C)C(=O)O)cc1 (stereo not drawn) [IBU, ibuprofen] | 2.758 ± 0.014 | 1.6–4.0 times | 56.89 ± 0.15 mg/mL (≈ 276 mM) | 466.1 ± 1.71 mg/mL (≈ 2260 mM) | 519.6 ± 0.69 mg/mL (≈ 2520 mM) | 411 ± 4.18 mg/mL (≈ 1990 mM) | 76.74 ± 0.35 mg/mL (≈ 372 mM) | 95.44 ± 0.03 mg/mL (≈ 463 mM) | 65.10 ± 1.92 mg/mL (≈ 316 mM) | 193.2 °C | 162.1 °C | 210.3 °C
2 | CC(C)Cc1ccc(C(C)C(=O)[O-])cc1.[Na+] (stereo not drawn) [IBUNa, sodium ibuprofenate] |  |  |  |  |  |  |  |  |  | 265.4 °C | 285.4 °C | 445.1 °C
